Values quoted from earlier work in patent US5962660A, “Sialyl Lewis X mimetics incorporating fucopeptides” (The Scripps Research Institute, priority 1997, dated 1999).

Experiments:
[1] = for lung injury / tissue accumulation of neutrophils: intravenous infusion of up to 200 μg, rats given intravenous cobra venom
[2] = because of glycosidase reactions

Substance | effective intravenous concentration ([1]; calculated from the 200 μg used) | lung injury [1] | tissue accumulation of neutrophils [1] | IC50 ([1]; rats, read-out: IC50 value in vivo for protecting against lung injury) | affinity for E-selectin in vitro (E-selectin) | stability in the blood stream [2]
NeuAcα2→3Galβ1→4(Fucα1→3)GlcNAc [SLe^x] | less than 1 μM | dramatically reduced | diminished | ~1 µM | relatively weak | unstable
NeuAcα2→3Galβ1→4(Fucα1→3)GlcNAcβ1,3Galβ- [pentamer] |  | dramatically reduced | diminished |  |  | 
